US8394967B2, “Antioxidant inflammation modulators: C-17 homologated oleanolic acid derivatives” (Reata Pharmaceuticals, Inc., priority 2008, dated 2013)
Where a name gives a salt, the structure may show the parent alone. Read-outs that look alike come from different tables or passages of the source.

How the values were obtained:
[1] = system: NO production in RAW264.7 macrophages; assay: Inhibition of NO production in IFNγ-treated RAW264.7 macrophages (Griess reagent); type: cell-based, mouse; conditions: then 20 ng/ml IFNγ for 24 hours
Method: (§1) FIGS. 1-4, 6 and 8. Inhibition of NO Production. RAW264.7 macrophages were pre-treated with DMSO or drugs at various concentrations (nM) for 2 hours, then treated with 20 ng/ml IFNγ for 24 hours. NO concentration in media was determined using a Griess reagent system; cell viability was determined using WST-1 reagent.
(§2) Nitric Oxide production and cell viability. RAW264.7 macrophages were pre-treated with DMSO or drugs for 2 hours, then treated with recombinant mouse IFNγ (Sigma) for 24 hours. NO concentration in media was determined using the Griess reagent system (Promega). Cell viability was determined using WST-1 reagent (Roche).

RAW264.7 macrophages = assay: Cell viability of RAW264.7 macrophages (WST-1 reagent); type: cell-based, mouse; conditions: read-out: RAW264.7 (20 ng/ml IFNγ) WST-1 IC50
Method: as §1, §2

[2] = Mus musculus, RAW264.7, RAW264.7 macrophages pre-treated 2 hours
[3] = Mus musculus, RAW264.7, 24 h, cell viability, RAW264.7, 20 ng/ml IFNγ 24 hours, WST-1 reagent

SMILES | IC50 [1, 2] [µM] | IC50 (RAW264.7 macrophages; [3]) [µM] | other results
CC1(C)CC[C@]2(CN)CC[C@]3(C)[C@H](C(=O)CC4[C@@]5(C)C=C(C#N)C(=O)C(C)(C)C5CC[C@]43C)[C@@H]2C1 (stereo partly drawn) [63214 salt, (6aR,6bR,8aS,12aS,12bR,14bR)-8a-(aminomethyl)-4,4,6a,6b,11,11,14b-heptamethyl-3,13-dioxo-3,4,4a,5,6,6a,6b,7,8,8a,9,10,11,12,12a,12b,13,14,14a,14b-icosahydropicene-2-carbonitrile, trifluoroacetic acid salt] | ~0.03 | > 0.2 | –
CC1(C)CC[C@]2(COC(=O)C(C)(C)C)CC[C@]3(C)[C@H](C(=O)C[C@@H]4[C@@]5(C)C=C(C#N)C(=O)C(C)(C)[C@@H]5CC[C@]43C)[C@@H]2C1 [Compound 63297, ((4aS,6aR,6bR,8aR,12aR,12bR,14aR,14bS)-11-cyano-2,2,6a,6b,9,9,12a-heptamethyl-10,14-dioxo-1,2,3,4,4a,5,6,6a,6b,7,8,8a,9,10,12a,12b,13,14,14a,14b-icosahydropicen-4a-yl)methyl pivalate] | ~0.05 | ~0.2 | –
CC1(C)CC[C@]2(CO)CC[C@]3(C)[C@H](C(=O)CC4[C@@]5(C)C=C(C#N)C(=O)C(C)(C)[C@@H]5CC[C@]43C)[C@@H]2C1 (stereo partly drawn) [Compound 402-63, (4aR,6aR,6bR,8aS,12aS,12bR,14bR)-8a-(hydroxymethyl)-4,4,6a,6b,11,11,14b-heptamethyl-3,13-dioxo-3,4,4a,5,6,6a,6b,7,8,8a,9,10,11,12,12a,12b,13,14,14a,14b-icosahydropicene-2-carbonitrile] | ~0.009 | > 0.2 | –
CC1(C)CC[C@]2(C[S+]([O-])c3ccccc3)CC[C@]3(C)[C@H](C(=O)C[C@@H]4[C@@]5(C)C=C(C#N)C(=O)C(C)(C)[C@@H]5CC[C@]43C)[C@@H]2C1 (stereo partly drawn) [Compound 63288, (4aR,6aR,6bR,8aS,12aS,12bR,14aR,14bR)-4,4,6a,6b,11,11,14b-heptamethyl-3,13-dioxo-8a-(phenylsulfinylmethyl)-3,4,4a,5,6,6a,6b,7,8,8a,9,10,11,12,12a,12b,13,14,14a,14b-icosahydropicene-2-carbonitrile] | – | – | IC50 ([1]; RAW264.7 macrophages pre-treated 2 hours): ~0.025 µM; IC50 (RAW264.7 macrophages; cell viability, RAW264.7, 20 ng/ml IFNγ 24 hours, WST-1 reagent): ~0.2 µM
CCOP(=O)(OCC)OC[C@]12CCC(C)(C)C[C@H]1[C@H]1C(=O)C[C@@H]3[C@@]4(C)C=C(C#N)C(=O)C(C)(C)[C@@H]4CC[C@@]3(C)[C@]1(C)CC2 [Compound 63239, ((4aS,6aR,6bR,8aR,12aR,12bR,14aR,14bS)-11-cyano-2,2,6a,6b,9,9,12a-heptamethyl-10,14-dioxo-1,2,3,4,4a,5,6,6a,6b,7,8,8a,9,10,12a,12b,13,14,14a,14b-icosahydropicen-4a-yl)methyl diethyl phosphate] | – | – | IC50 (RAW264.7 macrophages; Mus musculus, RAW264.7, 24 h): > 0.2 µM
Cn1nnc(CNC[C@]23CCC(C)(C)C[C@H]2[C@H]2C(=O)C[C@@H]4[C@@]5(C)C=C(C#N)C(=O)C(C)(C)[C@@H]5CC[C@@]4(C)[C@]2(C)CC3)n1 [Compound 63233, (4aR,6aR,6bR,8aS,12aS,12bR,14aR,14bR)-4,4,6a,6b,11,11,14b-heptamethyl-8a-(((2-methyl-2H-tetrazol-5-yl)methylamino)methyl)-3,13-dioxo-3,4,4a,5,6,6a,6b,7,8,8a,9,10,11,12,12a,12b,13,14,14a,14b-icosahydropicene-2-carbonitrile] | – | – | IC50 (RAW264.7 macrophages; Mus musculus, RAW264.7, 24 h): > 0.2 µM
CC1(C)CC[C@]2(CC(=O)O)CC[C@]3(C)[C@H](C(=O)C[C@@H]4[C@@]5(C)C=C(C#N)C(=O)C(C)(C)[C@@H]5CC[C@]43C)[C@@H]2C1 [Compound 63332, 2-((4aR,6aR,6bR,8aR,12aR,12bR,14aR,14bS)-11-cyano-2,2,6a,6b,9,9,12a-heptamethyl-10,14-dioxo-1,2,3,4,4a,5,6,6a,6b,7,8,8a,9,10,12a,12b,13,14,14a,14b-icosahydropicen-4a-yl)acetic acid] | ~0.05 | – | –
